Results on one compound are retold here after US20250032465A1, “METHODS OF TREATING CNS DISORDERS” (HANGZHOU HIGHLIGHTLL PHARMACEUTICAL CO., LTD, priority 2021, published 2025).

One series has as its target T1, TYK2 (Homo sapiens, UniProt P29597).
T1 construct: purchased Reaction Biology Corp, Malvern, PA (contract testing)
Kind of series: TYK2 biochemical test (33P-ATP filter binding, Reaction Biology). The note with it: read-out: Inhibition of TYK2 (IC50). On the procedure:
(§1) The tests were conducted by Reaction Biology Corp, Malvern, PA (Anastassiadis et al. Nat Biotechnol. 2011; 29(11):1039-45). The step is briefly described as follows, using the basic reaction buffer: 20 mM Hepes (pH 7.5), 10 mM MgCl2, 1 mM EGTA, 0.02% Brij35, 0.02 mg/ml BSA, 0.1 mM Na3VO4, 2 mM DTT and 1% DMSO. The required cofactor was added to each kinase reaction respectively. Each reaction was performed according to the following reaction steps: 1) Preparing the designated substrate in the newly prepared basic reaction buffer; 2) Transferring the required cofactor to the above matrix solution; 3) Transferring the designated kinase to the substrate solution and mixing well slightly; 4) Transferring a compound of Formula (I) in DMSO to the kinase reaction mixture with Acoustic technique (Echo550; nanoliter range), culturing for 20 minutes at room temperature; 5) Introducing ^33P-ATP (specific activity: 10 μCi/μl) to the reaction mixture to trigger a reaction; 6) Culturing at room temperature and conducting a kinase reaction for 2 hours; 7) Plotting the reaction on P81 ion exchange paper; and 8) Testing the kinase activity with a filter binding assay. The results shown in Table 1 indicate that compounds of Formulae (I)-(III) are potent and selective TYK2/JAK1 inhibitors.

Series [1] concerns the target T2, JAK1 (Homo sapiens, UniProt P23458).
T2 construct: purchased Reaction Biology Corp, Malvern, PA (contract testing)
Kind of series: JAK1 biochemical test (33P-ATP filter binding, Reaction Biology). The note with it: read-out: Inhibition of JAK1 (IC50). Here is the method:
as §1

The target in the next series is T3, JAK3 (Homo sapiens, UniProt P52333).
T3 construct: purchased Reaction Biology Corp, Malvern, PA (contract testing)
T3 sequence (P52333 1-1124): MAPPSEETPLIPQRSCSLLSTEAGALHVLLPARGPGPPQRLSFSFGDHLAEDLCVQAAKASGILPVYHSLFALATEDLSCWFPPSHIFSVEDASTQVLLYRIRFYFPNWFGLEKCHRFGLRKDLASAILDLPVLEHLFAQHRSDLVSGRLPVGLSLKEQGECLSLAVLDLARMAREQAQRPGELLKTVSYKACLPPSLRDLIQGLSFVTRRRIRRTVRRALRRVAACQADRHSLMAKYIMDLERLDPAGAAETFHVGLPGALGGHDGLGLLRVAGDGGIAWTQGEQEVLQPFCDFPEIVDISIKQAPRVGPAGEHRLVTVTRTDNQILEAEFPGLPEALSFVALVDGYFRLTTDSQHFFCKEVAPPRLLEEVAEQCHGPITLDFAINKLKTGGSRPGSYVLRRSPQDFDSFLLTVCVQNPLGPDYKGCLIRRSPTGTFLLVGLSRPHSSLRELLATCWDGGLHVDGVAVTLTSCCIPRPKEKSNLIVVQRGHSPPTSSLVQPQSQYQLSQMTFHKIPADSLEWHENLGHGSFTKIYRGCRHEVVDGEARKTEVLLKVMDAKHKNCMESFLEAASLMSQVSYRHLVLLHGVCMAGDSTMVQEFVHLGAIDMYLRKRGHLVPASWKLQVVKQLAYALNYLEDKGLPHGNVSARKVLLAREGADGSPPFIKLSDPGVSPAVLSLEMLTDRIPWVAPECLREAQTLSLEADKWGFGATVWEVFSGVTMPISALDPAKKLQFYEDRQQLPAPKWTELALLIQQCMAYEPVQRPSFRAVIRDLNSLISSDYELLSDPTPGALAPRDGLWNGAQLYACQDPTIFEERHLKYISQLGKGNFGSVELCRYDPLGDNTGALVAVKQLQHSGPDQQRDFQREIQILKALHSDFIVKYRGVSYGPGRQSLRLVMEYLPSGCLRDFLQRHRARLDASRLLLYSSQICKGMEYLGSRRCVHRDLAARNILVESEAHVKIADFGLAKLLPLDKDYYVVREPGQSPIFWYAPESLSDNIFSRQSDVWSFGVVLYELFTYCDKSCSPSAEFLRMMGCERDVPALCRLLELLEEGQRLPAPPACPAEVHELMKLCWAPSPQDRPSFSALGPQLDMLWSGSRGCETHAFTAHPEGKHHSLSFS
Kind of series: JAK3 biochemical test (33P-ATP filter binding, Reaction Biology). As to conditions: read-out: Inhibition of JAK3 (IC50). Here is the method: as §1

The target of series [2] is T2, JAK1. The experiment in a line: JAK1 cellular ELISA assay using PBMC cells (IL-6 stimulated STAT3 phosphorylation). In kind it is cell-based. The note with it: IL-6 100 ng/ml, 25 min. Here is the method:
This testing was performed to test cellular JAK1 activity using the IL-6 stimulated STAT3 phosphorylation assay in PBMC cells. The testing was performed according to the following procedure: 1) Plate PBMC cells to 96-well plate at density of ˜300,000 cell/well; 2) Add different concentrations of test article to wells, maintain in incubator at 37° C. and 5% CO2 for 1 hour; 3) Add IL-6 (final concentration: 100 ng/ml) to stimulate for 25 min in the above incubator; 4) After stimulation, transfer the suspension to 1.5 mL tube, centrifuge at 200 g for 5 min, collect cells, add 100 μL 1× lysate, lyse on ice for 1 hour; 5) Centrifuge at 4° C. and 12000 rpm for 10 min, take the supernatant and analyze according to instructions of the ELISA kit. In this assay, compounds of Formulae (II) and (III) had IC50<300 nM.
For orientation: ELISA stands for enzyme-linked immunosorbent assay.

For another series, the system named is HT22 cells. Kind of series: Viability of HT22 cells with LPS but without BV2 microglia. In kind it is cell-based. The note with it: 1.7 μM, presence or absence of LPS (200 ng/ml, 96 h). On the procedure: (§2) This testing was performed to test the ability of compounds to alleviate the injury of HT22 cells induced by LPS activated BV2 cells. The testing was performed according to the following procedure: 1) Microglia BV2 cells were co-cultured on transwell inserts with HT22hippocampal neurons. BV2 cells were stimulated with LPS (200 ng/ml) for 96 h after treatment with a compound of Formula (II) at 1.7 μM. 2) HT22 cells were pre-treated with a compound of Formula (II) at 1.7 μM for 30 min and subsequently stimulated with LPS (200 ng/ml) for 96 h. 3) BV2 cells were treated using LPS. IL-6, TNF and MCP-1 productions were measured in cell supernatants using CBA assay.
The protective effects of a compound of Formula (II) on microglial activation-induced neuronal death were evaluated in a BV2 microglia/HT22 neuron co-culture. Following stimulation of BV2 microglia with LPS (200 ng/mL), there was a marked reduction in the viability of co-cultured HT22 cells.

The next series deals with BV2 cells. The experiment in a line: IL-6, TNF and MCP-1 production in LPS-stimulated BV2 cells (CBA assay). In kind it is cell-based. The note with it: for inhibition at 1.7 µM: Mus musculus, BV-2, LPS-treated BV2 cells. Here is the method: as §2
In LPS-treated BV2 cells, there was a marked increase in IL-6, TNF and MCP-1 production, when compared to unstimulated cells.

“Also recorded” adds a separate entry of the source. Like-named read-outs stand apart in the source and are kept apart here.

T2 sequence (P23458 whole entry): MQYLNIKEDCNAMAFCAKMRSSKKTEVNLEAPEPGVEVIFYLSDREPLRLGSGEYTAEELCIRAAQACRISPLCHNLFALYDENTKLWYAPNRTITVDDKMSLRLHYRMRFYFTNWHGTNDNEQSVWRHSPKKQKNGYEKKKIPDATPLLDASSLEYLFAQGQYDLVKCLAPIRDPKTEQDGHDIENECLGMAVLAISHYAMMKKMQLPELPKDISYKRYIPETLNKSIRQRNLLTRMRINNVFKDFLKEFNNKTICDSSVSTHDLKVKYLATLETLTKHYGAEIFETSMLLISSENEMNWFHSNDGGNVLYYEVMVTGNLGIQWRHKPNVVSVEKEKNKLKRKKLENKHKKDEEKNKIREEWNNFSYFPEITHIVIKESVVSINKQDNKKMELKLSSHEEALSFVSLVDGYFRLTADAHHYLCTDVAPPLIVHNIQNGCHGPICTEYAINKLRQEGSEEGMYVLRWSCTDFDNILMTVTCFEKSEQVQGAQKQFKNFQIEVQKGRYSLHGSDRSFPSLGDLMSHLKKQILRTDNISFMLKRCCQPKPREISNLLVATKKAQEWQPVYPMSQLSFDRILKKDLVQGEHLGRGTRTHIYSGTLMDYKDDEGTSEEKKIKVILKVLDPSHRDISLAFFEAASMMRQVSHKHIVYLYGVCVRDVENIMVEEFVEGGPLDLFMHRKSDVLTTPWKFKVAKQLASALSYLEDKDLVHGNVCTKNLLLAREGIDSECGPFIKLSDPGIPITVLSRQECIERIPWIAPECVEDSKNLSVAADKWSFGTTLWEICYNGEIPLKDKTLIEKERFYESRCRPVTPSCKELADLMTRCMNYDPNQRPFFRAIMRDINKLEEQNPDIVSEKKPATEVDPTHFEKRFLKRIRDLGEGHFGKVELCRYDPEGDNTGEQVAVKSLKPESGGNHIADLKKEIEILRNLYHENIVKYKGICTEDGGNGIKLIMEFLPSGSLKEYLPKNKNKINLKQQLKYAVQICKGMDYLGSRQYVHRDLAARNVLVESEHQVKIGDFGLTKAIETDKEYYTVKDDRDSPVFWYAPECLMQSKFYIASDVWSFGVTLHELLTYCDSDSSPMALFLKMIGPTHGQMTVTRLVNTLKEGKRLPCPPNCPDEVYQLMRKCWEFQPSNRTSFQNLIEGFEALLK
T1 sequence (P29597 whole entry): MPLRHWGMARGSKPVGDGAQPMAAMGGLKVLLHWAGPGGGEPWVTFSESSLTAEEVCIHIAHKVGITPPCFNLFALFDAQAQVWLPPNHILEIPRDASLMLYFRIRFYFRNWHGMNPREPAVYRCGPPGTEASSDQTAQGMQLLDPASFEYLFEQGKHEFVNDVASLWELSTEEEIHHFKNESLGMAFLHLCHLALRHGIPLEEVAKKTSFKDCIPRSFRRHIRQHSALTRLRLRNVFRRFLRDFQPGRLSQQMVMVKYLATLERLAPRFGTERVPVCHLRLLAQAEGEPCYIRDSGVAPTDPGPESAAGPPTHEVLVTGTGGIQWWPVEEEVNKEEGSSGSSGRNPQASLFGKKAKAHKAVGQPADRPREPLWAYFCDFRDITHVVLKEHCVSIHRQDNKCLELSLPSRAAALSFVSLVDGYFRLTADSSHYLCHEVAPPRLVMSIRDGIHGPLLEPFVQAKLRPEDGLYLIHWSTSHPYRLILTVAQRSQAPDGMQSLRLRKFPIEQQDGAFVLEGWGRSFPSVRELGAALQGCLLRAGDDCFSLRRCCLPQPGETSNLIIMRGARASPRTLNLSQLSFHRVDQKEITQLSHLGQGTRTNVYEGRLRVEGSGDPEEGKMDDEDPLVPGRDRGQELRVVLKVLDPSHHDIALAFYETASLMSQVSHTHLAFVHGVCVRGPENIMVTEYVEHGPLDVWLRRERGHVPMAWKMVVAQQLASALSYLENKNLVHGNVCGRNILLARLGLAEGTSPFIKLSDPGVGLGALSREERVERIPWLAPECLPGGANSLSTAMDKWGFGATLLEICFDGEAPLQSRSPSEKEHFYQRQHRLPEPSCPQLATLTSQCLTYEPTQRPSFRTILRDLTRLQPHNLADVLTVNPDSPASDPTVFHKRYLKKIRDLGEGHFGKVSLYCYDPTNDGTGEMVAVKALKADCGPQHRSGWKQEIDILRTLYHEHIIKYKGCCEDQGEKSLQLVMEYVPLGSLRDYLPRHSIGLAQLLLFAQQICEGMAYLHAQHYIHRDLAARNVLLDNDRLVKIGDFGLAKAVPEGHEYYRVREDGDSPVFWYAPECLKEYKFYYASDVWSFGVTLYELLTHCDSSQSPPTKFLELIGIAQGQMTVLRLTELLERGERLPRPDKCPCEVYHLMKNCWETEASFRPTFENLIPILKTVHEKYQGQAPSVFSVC

With `Cc1nc2cnc3ccoc3c2n1[C@H]1CC[C@H](CC#N)OC1` [Formula (II)], the IC50 (commonly the midpoint of a concentration-inhibition curve) at TYK2 was below 10 nM; at JAK1 [1] it was below 10 nM; on JAK3 it was above 100 nM; against JAK1 [2], below 300 nM. Moreover, the “Viability of HT22 cells” value in the series on HT22 cells is recorded as “did not affect the viability”. In the series with BV2 cells (LPS-stimulated BV2 cells, pre-treatment), the “IL-6, TNF and MCP-1 production (in words)” value was “dose-dependently reduced; also recorded: inhibited”. In addition, the inhibition – broadly, the relative decrease from the control value, in per cent – at 1.7 µM with BV2 cells (read-out: Inhibition of IL-6 production) was found to be 49.1%; with BV2 cells (read-out: Inhibition of MCP-1 production) it was 56.9%; in the series on BV2 cells (read-out: Inhibition of TNF production), 39.9%.
